Test results published in patent publication US20050112573A1, “Method of detecting toxic substance” (priority 2001, published 2005).

System: yeast genes (level of expressed mRNA)
Experiment: DNA chip analysis of expressed mRNA of yeast genes after 2 h culture with a toxic chemical substance
Assay type: cell-based, Saccharomyces cerevisiae S288C
Experimental: Yeast (Saccharomyces cerevtisiae S288C (α SUC2mal mel gap2 CUP1)) were cultured at 25° C. on YPD medium (yeast extract 1%, polypepton 2%, glucose 2%). One of toxic chemical substances was added to the cell at logarithmic growth phase, and the cell was further cultured for two hours. Cell was cultured without any chemical substance in the same condition, and was used as control. Concentrations of the chemical substances were defined to inhibit the growth of the yeast but not lead to death.
After the completion of cultivation, the culture was centrifuged to collect the cells. To the cells, sodium acetate buffer (50 mM sodium acetate, 10 mM EDTA, 1% SDS) was added, and the mixture was shaken at 65° C. for five minutes, followed by returning to room temperature, and obtaining the supernatant, which procedure was repeated two times. To the supernatant, ½ amount of a solution of phenol/chloroform was added, and the mixture was centrifuged to give a supernatant, which was added with an equal amount of chloroform, and the mixture was centrifuged to give a supernatant. To the supernatant, an equal amount of isopropanol containing 0.3 M sodium acetate was added, and the mixture was allowed to stand at room temperature for 30 minutes, after which the mixture was centrifuged to give a sediment of the whole RNAs. Seventy % ethanol was added to the sediment, and the mixture was again centrifuged to give a sediment, which was then dried and dissolved in water. mRNA was isolated from the whole RNAs as followings. In view of the fact that a poly A chain is attached to the 3′ terminus of mRNA, a polynucleotide having a poly T structure which was immobilized on the surface of latex beads was used to trap the mRNA, and then the mRNA was washed and eluted with spine column (Oligotex-dT30<Super>mRNA Purification Kit, Takara). Reverse transcription of the mRNA was conducted with a reverse transcriptase (Super Script II Reverse Transcriptase; catalogue No. 18064-014, GibcoBRL) using fluorescence-labeled nucleotides to give cDNAs that were introduced with Cy3-dUTP or Cy5-dUTP during the reverse transcription.
The labeled cDNAs were dissolved in TE buffer (10 mM Tris-HCl/1 mM EDTA, pH8.0), and the solution was dropped on the DNA chip containing the whole genes of yeast (DNA Chip Research Inc. Japan) so that the cDNAs were hybridized on the DNA chip at 65° C. for over 12 hours. The fluoresces intensity of the DNA chip was read with a scanner, and the ratio relative to the fluorescence intensity resulting from the absence of chemical substance was estimated as the following, which is shown in Tables 1 to 9: [formula]
In the Tables, “Intensity” indicated in the rightmost column is a value of the level of expressed mRNA of each gene in control cells as divided by the average level of the expressions of the whole genes.

C[S+](C)[O-] [(15), dimethylsulfoxide]
level of expressed mRNA in the presence of chemical substance/in its absence (gene YAL012W): 3.1
The level of expressed mRNA in the presence of chemical substance/absence: YAL014C (gene YAL014C): 2.3
The level of expressed mRNA in the presence of chemical substance/absence: YAL017W (gene YAL017W): 1.0
The level of expressed mRNA in the presence of chemical substance/absence: YAL018C (gene YAL018C): 6.9
level of expressed mRNA in the presence of chemical substance/in its absence (gene YAL038W): 3.1
level of expressed mRNA in the presence of chemical substance/in its absence (gene YAL044C): 0.7
The level of expressed mRNA in the presence of chemical substance/absence: YAL049C (gene YAL049C): 1.4
level of expressed mRNA in the presence of chemical substance/in its absence (gene YAL054C): 0.9
The level of expressed mRNA in the presence of chemical substance/absence: YAR047C (gene YAR047C): 0.5
The level of expressed mRNA in the presence of chemical substance/absence: YAR064W (gene YAR064W): 1.9
level of expressed mRNA in the presence of chemical substance/in its absence (gene YAR071W): 1.1
level of expressed mRNA in the presence of chemical substance/in its absence (gene YBL001C): 1.0
The level of expressed mRNA in the presence of chemical substance/absence: YBL044W (gene YBL044W): 0.7
The level of expressed mRNA in the presence of chemical substance/absence: YBL100C (gene YBL100C): 1.0
The level of expressed mRNA in the presence of chemical substance/absence: YBR012C (gene YBR012C): 1.1
The level of expressed mRNA in the presence of chemical substance/absence: YBR013C (gene YBR013C): 1.1
level of expressed mRNA in the presence of chemical substance/in its absence (gene YBR014C): 1.2
level of expressed mRNA in the presence of chemical substance/in its absence (gene YBR023C): 2.8
level of expressed mRNA in the presence of chemical substance/in its absence (gene YBR029C): 3.5
level of expressed mRNA in the presence of chemical substance/in its absence (gene YBR035C): 0.7
level of expressed mRNA in the presence of chemical substance/in its absence (gene YBR050C): 0.5
The level of expressed mRNA in the presence of chemical substance/absence: YBR051W (gene YBR051W): 0.8
The level of expressed mRNA in the presence of chemical substance/absence: YBR063C (gene YBR063C): 1.6
The level of expressed mRNA in the presence of chemical substance/absence: YBR066C (gene YBR066C): 0.4
level of expressed mRNA in the presence of chemical substance/in its absence (gene YBR068C): 1.6
level of expressed mRNA in the presence of chemical substance/in its absence (gene YBR111C): 0.7
The level of expressed mRNA in the presence of chemical substance/absence: YBR124W (gene YBR124W): 1.0
The level of expressed mRNA in the presence of chemical substance/absence: YBR129C (gene YBR129C): 0.9
level of expressed mRNA in the presence of chemical substance/in its absence (gene YBR145W): 1.2
The level of expressed mRNA in the presence of chemical substance/absence: YBR162C (gene YBR162C): 1.9
level of expressed mRNA in the presence of chemical substance/in its absence (gene YBR183W): 1.1
level of expressed mRNA in the presence of chemical substance/in its absence (gene YBR222C): 4.3
The level of expressed mRNA in the presence of chemical substance/absence: YBR255W (gene YBR255W): 1.0
The level of expressed mRNA in the presence of chemical substance/absence: YBR281C (gene YBR281C): 1.0
The level of expressed mRNA in the presence of chemical substance/absence: YBR287W (gene YBR287W): 1.3
level of expressed mRNA in the presence of chemical substance/in its absence (gene YBR299W): 0.6
level of expressed mRNA in the presence of chemical substance/in its absence (gene YCL009C): 6.5
The level of expressed mRNA in the presence of chemical substance/absence: YCL044C (gene YCL044C): 4.4
The level of expressed mRNA in the presence of chemical substance/absence: YCL056C (gene YCL056C): 1.7
level of expressed mRNA in the presence of chemical substance/in its absence (gene YCL064C): 21.4
The level of expressed mRNA in the presence of chemical substance/absence: YCR007C (gene YCR007C): 0.8
level of expressed mRNA in the presence of chemical substance/in its absence (gene YCR037C): 1.0
level of expressed mRNA in the presence of chemical substance/in its absence (gene YCR048W): 3.1
level of expressed mRNA in the presence of chemical substance/in its absence (gene YCR098C): 11.0
level of expressed mRNA in the presence of chemical substance/in its absence (gene YDL022W): 0.9
The level of expressed mRNA in the presence of chemical substance/absence: YDL046W (gene YDL046W): 2.3
The level of expressed mRNA in the presence of chemical substance/absence: YDL089W (gene YDL089W): 1.6
The level of expressed mRNA in the presence of chemical substance/absence: YDL173W (gene YDL173W): 1.1
The level of expressed mRNA in the presence of chemical substance/absence: YDL193W (gene YDL193W): 1.2
The level of expressed mRNA in the presence of chemical substance/absence: YDL233W (gene YDL233W): 1.3
level of expressed mRNA in the presence of chemical substance/in its absence (gene YDR009W): 3.2
level of expressed mRNA in the presence of chemical substance/in its absence (gene YDR019C): 1.8
The level of expressed mRNA in the presence of chemical substance/absence: YDR071C (gene YDR071C): 0.9
The level of expressed mRNA in the presence of chemical substance/absence: YDR078C (gene YDR078C): 0.5
The level of expressed mRNA in the presence of chemical substance/absence: YDR090C (gene YDR090C): 1.1
The level of expressed mRNA in the presence of chemical substance/absence: YDR109C (gene YDR109C): 1.7
The level of expressed mRNA in the presence of chemical substance/absence: YDR128W (gene YDR128W): 1.4
